Data on 27 compounds can be found in patent publication US10689331B2, “IDO inhibitors” (Bristol-Myers Squibb Company, priority 2015, dated 2020).

The IC50 is the concentration needed to halve the response being measured.

T1 sequence (P14902 whole entry): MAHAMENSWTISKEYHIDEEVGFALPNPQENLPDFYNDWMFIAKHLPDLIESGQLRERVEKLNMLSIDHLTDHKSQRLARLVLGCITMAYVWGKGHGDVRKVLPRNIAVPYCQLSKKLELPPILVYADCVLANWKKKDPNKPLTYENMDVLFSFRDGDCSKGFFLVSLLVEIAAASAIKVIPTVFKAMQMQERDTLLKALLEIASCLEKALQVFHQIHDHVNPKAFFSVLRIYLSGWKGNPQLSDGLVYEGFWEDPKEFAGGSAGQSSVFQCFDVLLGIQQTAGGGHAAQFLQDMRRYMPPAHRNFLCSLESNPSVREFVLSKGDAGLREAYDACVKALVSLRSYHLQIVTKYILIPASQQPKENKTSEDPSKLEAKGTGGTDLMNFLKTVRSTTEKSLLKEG

This test addresses T1, human IDO1 (Homo sapiens, UniProt P14902).
T1 construct: expressed in transfected cells
Nature of the test: HEK Human IDO-1 inhibition assay (kynurenine readout, Ehrlich reagent, absorbance 490 nm). In kind it is cell-based. As to conditions: human IDO1/HEK293 cells, incubated 20 hours with compound; 500 nM reference standard = 100% inhibition. As to the method: HEK293 cells were transfected with a pCDNA-based mammalian expression vector harboring human IDO1 cDNA (NM 002164.2) by electroporation. They were cultured in medium (DMEM with 10% FBS) containing 1 mg/ml G418 for two weeks. Clones of HEK293 cells that stably expressed human IDO1 protein were selected and expanded for IDO inhibition assay.
The human IDO1/HEK293 cells were seeded at 10,000 cells per 50 uL per well with RPMI/phenol red free media contains 10% FBS in a 384-well black wall clear bottom tissue culture plate (Matrix Technologies LLC) 100 nL of certain concentration of compound was then added to each well using ECHO liquid handling systems. The cells were incubated for 20 hours in 37° C. incubator with 5% CO2.
The compound treatments were stopped by adding Trichloroacetic Acid (Sigma-Aldrich) to a final concentration at 0.2%. The cell plate was further incubated at 50° C. for 30 minute. The equal volume supernatant (20 uL) and 0.2% (w/v) Ehrlich reagent (4-dimethylaminobenzaldehyde, Sigma-Aldrich) in glacial acetic acid were mixed in a new clear bottom 384-well plate. This plate was then incubated at room temperature for 30 minute. The absorbance at 490 nm was measured on Envision plate reader. Compound IC50 values were calculated using the counts of 500 nM of a reference standard treatment as one hundred percent inhibition, and counts of no compound but DMSO treatment as zero percent inhibition.
As to `CC(C)CN(c1ccc(OC(C)C(=O)O)cc1Nc1nc2ccccc2o1)C1CCCCC1` (racemic) [Example 62, (±)-2-(3-(benzo[d]oxazol-2-ylamino)-4-(cyclohexyl (isobutyl)amino)phenoxy)propanoic acid], the IC50 is at least 100 nM. As for `COc1cnc(Nc2cc(OC(C)C(=O)O)ccc2N(CC(C)C)C2CCCCC2)nc1` (racemic) [Example 63, (±)-2-(4-(cyclohexyl(isobutyl)amino)-3-((5-methoxypyrimidin-2-yl)amino)phenoxy)propanoic acid], the IC50 is at least 100 nM. For `Cc1cc(NC(=O)Nc2cc(OC(C)C(=O)NS(=O)(=O)C3CC3)ccc2N(CC(C)C)C2CCCCC2)on1` (racemic) [Example 68] the value was below 5 nM; for `Cc1ccc(NC(=O)Nc2cc(OC(C)C(=O)NS(=O)(=O)C3CC3)ccc2N(CC(C)C)C2CCCCC2)cc1` (racemic) [Example 69, (±)-2-(4-(cyclohexyl(isobutyl)amino)-3-(3-(p-tolyl)ureido)phenoxy)-N-(cyclopropylsulfonyl)propanamide], below 5 nM; for `CC(C)CN(c1ccc(OC(C)C(=O)NS(=O)(=O)C2CC2)cc1NC(=O)Nc1ccc(Cl)cc1F)C1CCCCC1` (racemic) [Example 70, (±)-2-(3-(3-(4-chloro-2-fluorophenyl)ureido)-4-(cyclohexyl(isobutyl)amino)phenoxy)-N-(cyclopropylsulfonyl) propanamide], below 5 nM.

For the compound `CC(C)CN(c1ccc(OC(C)C(=O)O)cc1NC(=O)Cc1ccc(F)cc1F)C1CCCCC1` (racemic) [Example 71, 2-(4-(cyclohexyl(isobutyl)amino)-3-(2-(2,4-difluorophenyl)acet-amido)phenoxy)propanoic acid], the IC50 is below 100 nM. For `CC(C)CN(c1ccc(OC(C)C(=O)O)cc1NC(=O)Cc1ccc(Cl)c(F)c1)C1CCCCC1` (racemic) [Example 72, 2-(3-(2-(4-chloro-3-fluorophenyl)acetamido)-4-(cyclohexyl (isobutyl)amino)phenoxy)prop-anoic acid] the value was below 100 nM; for `CC(C)CN(c1ccc(OC(C)C(=O)O)cc1NC(=O)Cc1ccc(Cl)cc1F)C1CCCCC1` (racemic) [Example 73], below 100 nM; for `CC(C)CN(c1ccc(OC(C)C(=O)O)cc1NC(=O)Cc1ccc(F)cc1)C1CCCCC1` (racemic) [Example 74, 2-(4-(cyclohexyl(isobutyl)amino)-3-(2-(4-fluorophenyl)acet-amido)phenoxy)propanoic acid], at least 100 nM.

Regarding `Cc1ccc(CC(=O)Nc2cc(OC(C)C(=O)O)ccc2N(CC(C)C)C2CCCCC2)cc1` (racemic) [Example 75, 2-(4-(cyclohexyl(isobutyl)amino)-3-(2-(p-tolyl)acetamido)phenoxy)propanoic acid], the IC50 was below 100 nM. In the case of `Cc1ccc(CC(=O)Nc2cc(OC(C)C(=O)O)ccc2N(CC(C)C)C2CCCCC2)c(F)c1` (racemic) [Example 76, 2-(4-(cyclohexyl(isobutyl)amino)-3-(2-(2-fluoro-4-methylphenyl)acetamido)phenoxy)propanoic acid] it was below 100 nM; in that of `CC(C)CN(c1ccc(OC(C)C(=O)NS(=O)(=O)C2CC2)cc1NC(=O)Cc1ccc(Cl)cc1F)C1CCCCC1` (racemic) [Example 77, (±)-2-(3-(2-(4-chloro-2-fluorophenyl)acetamido)-4-(cyclohexyl(isobutyl)amino)phenoxy)-N-(cyclopropylsulfonyl) propanamide], below 100 nM. In the case of `Cc1ccc(CC(=O)Nc2cc(OC(C)C(=O)NS(=O)(=O)C3CC3)ccc2N(CC(C)C)C2CCCCC2)cc1` (racemic) [Example 78, (±)-2-(4-(cyclohexyl(isobutyl)amino)-3-(2-(p-tolyl)acetamido)phenoxy)-N-(cyclopropylsulfonyl)propanamide] it was below 100 nM. For `CC(C)CN(c1ccc(OC(C)C(=O)NS(=O)(=O)C2CC2)cc1NC(=O)Cc1ccc(Cl)c(F)c1)C1CCCCC1` (racemic) [Example 79, (±)-2-(3-(2-(4-chloro-3-fluorophenyl)acetamido)-4-(cyclohexyl(isobutyl)amino)phenoxy)-N-(cyclopropylsulfonyl) propanamide] the value was at least 100 nM; for `CC(C)CN(c1ccc(OC(C(=O)O)C(C)C)cc1NC(=O)Nc1ccc(Cl)cc1F)C1CCCCC1` (racemic) [Example 83], below 5 nM. Consider `Cc1ccc(NC(=O)Nc2cc(OC(C(=O)O)C(C)C)ccc2N(CC(C)C)C2CCCCC2)cc1` (racemic) [Example 84, (±)-2-(4-(cyclohexyl(isobutyl)amino)-3-(3-(p-tolyl)ureido)phenoxy)-3-methylbutanoic acid], for which the IC50 was below 100 nM. For `C=C(C)CN(c1ccc(OC(C)C(=O)O)cc1NC(=O)Nc1ccc(C)cc1)C1CCOCC1` (racemic) [Example 140, (+/−)-2-(4-((2-methylallyl)(tetrahydro-2H-pyran-4-yl)amino)-3-(3-(p-tolyl)ureido)phenoxy)propanoic acid] the value was at least 100 nM; for `COc1ccc(NC(=O)Nc2cc(OC(C)C(=O)O)ccc2N(CC(C)C)C2CCCCC2)c(F)c1` (racemic) [racemic 64], below 5 nM. Consider `Cc1ccc(NC(=O)Nc2cc(OC(C)C(=O)O)ccc2N(CC(C)C)C2CCCCC2)c(F)c1` (racemic) [racemic 65], for which the IC50 is below 5 nM. As for `CC(C)CN(c1ccc(OC(C)C(=O)O)cc1NC(=O)Nc1ccc(C#N)cc1)C1CCCCC1` (racemic) [racemic 66], the IC50 is at least 100 nM. In the case of `CCOC(=O)C(C)Oc1ccc(N(CC(C)C)C2CCCCC2)c(NC(=O)Nc2ccc(Cl)cc2F)c1` (racemic) [racemic 67] it was below 5 nM; in that of `CC(C)CN(c1cc(F)c(OC(C)C(=O)O)cc1NC(=O)Nc1ccc(Cl)cc1F)C1CCCCC1` (racemic) [racemic 136], below 5 nM; in that of `CC(C)CN(c1ccc(OC(C)C(=O)O)cc1NC(=O)Nc1cncnc1)C1CCCCC1` (single isomer, unassigned) [Example 58-1, 2-(4-(cyclohexyl(isobutyl)amino)-3-(3-(pyrimidin-5-yl)ureido)phenoxy)propanoic acid], at least 100 nM. As for `CC(C)CN(c1ccc(OC(C)C(=O)O)cc1NC(=O)Nc1cncnc1)C1CCCCC1` (single isomer, unassigned) [Example 58-2, 2-(4-(cyclohexyl(isobutyl)amino)-3-(3-(pyrimidin-5-yl)ureido)phenoxy)propanoic acid], the IC50 was below 100 nM.

With `CC(C)CN(c1ccc(OC(C)C(=O)O)cc1NC(=O)Nc1ccccc1F)C1CCCCC1` (single isomer, unassigned) [Example 59-1, 2-(4-(cyclohexyl(isobutyl)amino)-3-(3-(2-fluoro-phenyl)ureido)phenoxy)propanoic acid], the IC50 was below 5 nM.

In the case of `Cc1ccc(NC(=O)Nc2cc(OC(C)C(=O)O)ccc2N(CC(C)C)C2CCCCC2)cc1` (single isomer, unassigned) [Example 60-1, 2-(4-(cyclohexyl(isobutyl)amino)-3-(3-(p-tolyl)ureido)phenoxy)propanoic acid], the IC50 is below 5 nM. For the compound `CC(C)CN(c1ccc(OC(C)C(=O)O)cc1NC(=O)Nc1ccc(Cl)cc1F)C1CCCCC1` (single isomer, unassigned) [Example 61-1, 2-(3-(3-(4-chloro-2-fluorophenyl)ureido)-4-(cyclo-hexyl(isobutyl)amino)phenoxy)propanoic acid], the IC50 was below 5 nM.
